Results published in PubChem BioAssay AID330 (DTP/NCI, 2004).
Values joined by “and” are separate entries in the source; they are usually repeats but may differ in a detail not shown here. Equal values may be shown once. Inconclusive results and toxic doses are left out. Rule for the calls: active = survival T/C of 150% or more; inactive = T/C below 125% in these data.

System: P388 leukemia ip, CD2F1 mice, survival T/C
Experiment: NCI In Vivo Anticancer Drug Screen. Data for tumor model P388 Leukemia (intraperitoneal) in CD2F1 (CDF1) mice
Conditions: endpoint: median survival time, higher = longer survival
Summary of the method: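 Mice carrying the transplanted tumor received test compound or vehicle. Survival was recorded in each group, and the value is the treated-group measurement divided by that of the vehicle-treated control group.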

[1] = dose: 6.25 mg/kg/injection, schedule: Q01DX009 (ip), vehicle: saline with Tween-80
[2] = dose: 12.5 mg/kg/injection, schedule: Q01DX009 (ip), vehicle: saline with Tween-80
[3] = dose: 25.0 mg/kg/injection, schedule: Q01DX009 (ip), vehicle: saline with Tween-80
[4] = dose: 50.0 mg/kg/injection, schedule: Q01DX009 (ip), vehicle: saline with Tween-80
[5] = dose: 100.0 mg/kg/injection, schedule: Q01DX009 (ip), vehicle: saline with Tween-80
[6] = dose: 200.0 mg/kg/injection, schedule: Q01DX009 (ip), vehicle: saline with Tween-80

Measured: T/C

O=C1C2CC=CCC2C(=O)N1SC(Cl)(Cl)Cl (stereo unspecified)
inactive: dose: 3.13 mg/kg/injection, schedule: Q01DX009 (ip), vehicle: saline with Tween-80 121 % of control | [1] 121 % of control | [2] 120 % of control

Nc1nc2scnc2c(=O)[nH]1
inactive: dose: 12.5 mg/kg/injection, schedule: Q01DX005 (ip), vehicle: saline with Tween-80 88 % of control | dose: 25.0 mg/kg/injection, schedule: Q01DX005 (ip), vehicle: saline with Tween-80 101 % of control | dose: 50.0 mg/kg/injection, schedule: Q01DX005 (ip), vehicle: saline with Tween-80 109 % of control and 97 % of control | dose: 100.0 mg/kg/injection, schedule: Q01DX005 (ip), vehicle: saline with Tween-80 102 % of control | dose: 200.0 mg/kg/injection, schedule: Q01DX005 (ip), vehicle: saline with Tween-80 112 % of control

COCON=C(C)C
inactive: dose: 100.0 mg/kg/injection, schedule: Q01DX001 (ip), vehicle: saline 100 % of control | dose: 200.0 mg/kg/injection, schedule: Q01DX001 (ip), vehicle: saline 99 % of control | dose: 400.0 mg/kg/injection, schedule: Q01DX001 (ip), vehicle: saline 98 % of control

CCCCc1nc2cc(CN3CCN(C(c4ccccc4)c4ccccc4)CC3)ccc2n1CC
inactive: [1] 95 % of control | [2] 101 % of control | [3] 100 % of control

O=C(O)/C=C(\Br)C(=O)O
inactive: dose: 100.0 mg/kg/injection, schedule: Q04DX002 (ip), vehicle: saline 95 % of control | dose: 200.0 mg/kg/injection, schedule: Q04DX002 (ip), vehicle: saline 90 % of control

CC(C)(CCC#N)C1NC(C(=O)O)CS1 (stereo unspecified)
inactive: dose: 50.0 mg/kg/injection, schedule: Q01DX009 (ip), vehicle: saline 102 % of control | dose: 100.0 mg/kg/injection, schedule: Q01DX009 (ip), vehicle: saline 99 % of control | dose: 200.0 mg/kg/injection, schedule: Q01DX009 (ip), vehicle: saline 87 % of control

CC(C)=CCC(OC(=O)C=C(C)C)c1cc(O)c2c(O)ccc(O)c2c1O.[Cu] (stereo unspecified)
inactive: dose: 100.0 mg/kg/injection, schedule: Q04DX002 (ip), vehicle: saline with Tween-80 101 % of control | dose: 200.0 mg/kg/injection, schedule: Q04DX002 (ip), vehicle: saline with Tween-80 104 % of control

C[C@]12CC[C@H]3[C@@H](CCC4=CC(=O)CC[C@@H]43)[C@@H]1CC[C@@H]2OC(=O)N(CCCl)N=O
inactive: dose: 12.5 mg/kg/injection, schedule: Q01DX009 (ip), vehicle: other 123 % of control | dose: 15.0 mg/kg/injection, schedule: Q01DX009 (ip), vehicle: saline 96 % of control | dose: 15.0 mg/kg/injection, schedule: Q04DX003 (ip), vehicle: saline 100 % of control and 107 % of control | dose: 25.0 mg/kg/injection, schedule: Q01DX005 (ip), vehicle: other 104 % of control | dose: 25.0 mg/kg/injection, schedule: Q01DX009 (ip), vehicle: other 118 % of control | dose: 30.0 mg/kg/injection, schedule: Q01DX009 (ip), vehicle: saline 86 % of control | dose: 30.0 mg/kg/injection, schedule: Q04DX003 (ip), vehicle: saline 101 % of control and 106 % of control and 112 % of control | dose: 50.0 mg/kg/injection, schedule: Q01DX005 (ip), vehicle: other 96 % of control | dose: 60.0 mg/kg/injection, schedule: Q01DX009 (ip), vehicle: saline 91 % of control | dose: 60.0 mg/kg/injection, schedule: Q04DX003 (ip), vehicle: saline 98 % of control and 101 % of control and 120 % of control | dose: 120.0 mg/kg/injection, schedule: Q01DX009 (ip), vehicle: saline with Tween-80 86 % of control | dose: 120.0 mg/kg/injection, schedule: Q01DX009 (ip), vehicle: saline 92 % of control | dose: 120.0 mg/kg/injection, schedule: Q04DX003 (ip), vehicle: saline 102 % of control and 106 % of control

COc1ccc(C2NC(=O)NC2=O)cc1 (stereo unspecified)
inactive: [3] 100 % of control | [4] 91 % of control | [5] 93 % of control | [6] 94 % of control

Cc1cc(C)c(S(=O)(=O)NN)c(C)c1
inactive: [3] 104 % of control | [4] 104 % of control | [5] 100 % of control | [6] 95 % of control

C/C=C/C=C/C(=O)c1ccc(OC)cc1O
inactive: [4] 103 % of control and 105 % of control | [5] 101 % of control and 103 % of control | [6] 101 % of control and 106 % of control | dose: 400.0 mg/kg/injection, schedule: Q01DX009 (ip), vehicle: saline with Tween-80 106 % of control and 108 % of control
